{"source": "patent US20250108036A1", "about": "“COMPOSITIONS FOR REMOVING SENESCENT CELLS AND USES THEREOF” (LIFECEUTIX CO., LTD., priority 2021, published 2025)", "key": {"[1]": {"test_system": "foreskin cells in which aging was induced by doxorubicin", "assay": "cell viability of senescent foreskin cells with caspase inhibitor QVD-Oph (Example 10, Table 61)", "assay_type": "cell-based, human", "details": "LX-112 10 μM; for Survial (%): doxorubicin-senescent foreskin cells, 3 days"}, "[2]": {"test_system": "umbilical cord-derived mesenchymal stem cells", "assay": "death of senescent stem cells by LX-112", "assay_type": "cell-based, human", "details": "LX-112 10 μM", "protocol": "In addition to somatic cells, the death of senescent cells by LX-112 was confirmed to be about 50% in stem cells (umbilical cord-derived mesenchymal stem cells, purchased from ATCC) at a concentration of 10 μM. From this, it was confirmed that LX-112 can effectively remove senescent cells by inducing their death."}, "[3]": {"test_system": "urea, creatinine, Agtr1a mRNA", "assay": "kidney damage markers in doxorubicin-aged mice (Example 8-9)", "assay_type": "in vivo, C57BL6J mice", "details": "LX-112 70 mg/kg oral daily 21 days, DOX without LX = 100%", "protocol": "(§1) After adapting 8-week-old male C57BL6J mice (purchased from KRIBB Laboratory Animal Resource Center) to the experimental environment for 1 week, doxorubicin, an anticancer drug, was administered intraperitoneally at a concentration of 10 mg/kg, and mice that were induced to age for more than 10 days were assigned to an experimental group and a control group. LX-112 was mixed with 0.5% CMC-Na solution (purchased from Sigma) and administered orally at a concentration of 70 mg/kg daily for 21 days. The control group was administered only the solution in the same volume. After drug administration was completed, the method described in each Example below was performed.\nThe amounts of urea and creatinine, markers of kidney damage, in serum collected from mice were measured using spectrophotometry in the same manner as in Example 7-8. […] The amount of each factor after aging was induced by treatment with the anticancer drug was calculated as 100% and compared it with the amount of each factor after treatment with LX-112."}, "[4]": {"test_system": "urea, creatinine, Agtr1a mRNA", "assay": "kidney damage markers in naturally aged mice (Example 7-8)", "assay_type": "in vivo, C57BL6J mice", "details": "LX-112 70 mg/kg oral daily 21 days, aged untreated = 100%", "protocol": "After 22-month-old female C57BL6J mice (purchased from KRIBB Laboratory Animal Resource Center) were adapted to the experimental environment for one week, the aged mice were randomized into an experimental group and a control group. 8-week-old mice that were not aged were used as controls. LX-112 was mixed with 0.5% CMC-Na solution (purchased from Sigma) and administered orally at a concentration of 70 mg/kg daily for 21 days. The control group was administered only the solution in the same volume. After drug administration was completed, the method described in each Example below was performed.\nThe amounts of urea and creatinine, markers of kidney damage, in serum collected from mice were measured by spectrophotometry using a kit (purchased from BioAssay Systems and Sigma). Additionally, the amount of Agtr1a mRNA, a kidney damage marker, was measured by qRT-PCR as described in Example 7-2. […] The amount of each factor after inducing aging was calculated as 100% and compared with the amount of each factor after treatment with LX-112."}, "[5]": {"test_system": "lipofuscin", "assay": "lipofuscin staining of muscle of doxorubicin-aged mice (Example 8-4)", "assay_type": "in vivo, C57BL6J mice", "details": "stained area; doxorubicin-aged mice, LX-112 70 mg/kg oral daily 21 days", "protocol": "as §1\nMice were sacrificed in the same manner as in Example 7-4, and tissue sections were prepared from muscle tissue. Lipofuscin, an aging-related degenerative marker was stained."}}}
{"smiles": "O=c1c2ccccc2[se]n1CCn1[se]c2ccccc2c1=O", "note": "[LX-112, 1,2-[bis(1,2-benzisoselenazolone-3(2H)-ketone)]ethane]", "values": [{"measurement": "Survial (%)", "setting": "[1]; QVD-Oph 20 μM applied 4 hours before", "result": "53.9 (±2.2) %"}, {"measurement": "Survial (%)", "setting": "[1]; without QVD-Oph", "result": "39.5 (±3.7) %"}, {"measurement": "inhibition of the death of senescent cells by the caspase inhibitor", "setting": "[1]; QVD-Oph 20 μM, ABT-263 1 μM", "result": "did not effectively inhibit"}, {"measurement": "death of senescent cells", "setting": "[2]", "result": "about 50%"}, {"measurement": "Agtr1a mRNA (%)", "setting": "[3]", "result": "75 (±9) %"}, {"measurement": "Creatinine (%)", "setting": "[3]; serum", "result": "89 (±4) %"}, {"measurement": "Urea (%)", "setting": "[3]; serum", "result": "91.2 (±1.2) %"}, {"measurement": "Agtr1a mRNA (%)", "setting": "[4]; kidney damage marker", "result": "64 (±7) %"}, {"measurement": "Creatinine (%)", "setting": "[4]; serum", "result": "87 (±7.8) %"}, {"measurement": "Urea (%)", "setting": "[4]; serum", "result": "69 (±6) %"}, {"measurement": "Lipofuscin (%) Muscle", "setting": "[5]", "result": "77.1 (±8) %"}]}
